Relative viability data for four cell lines are collected here from the supplement of paper PMC10307832.

What all share (assay): relative viability (nuclei count vs DMSO), 5 days (fraction); higher = more cells survive
Compound in the assay “CAP-232 + Olaparib”: C[C@H]([C@@H](C(=O)N)NC(=O)[C@@H]1CSSC[C@@H](C(=O)N[C@H](C(=O)N[C@@H](C(=O)N[C@H](C(=O)N1)CCCCN)CC2=CNC3=CC=CC=C32)CC4=CC=C(C=C4)O)NC(=O)[C@@H](CC5=CC=CC=C5)N)O [CAP-232] + O=C(c1cc(Cc2n[nH]c(=O)c3ccccc23)ccc1F)N1CCN(C(=O)C2CC2)CC1 [Olaparib] (partner 8 µM)
In a few lines:
(§1)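 Relative viability is defined as nuclei in treated wells over nuclei in vehicle wells. Duplicate plates were run and medians reported. Lung cancer cell lines in 1536-well plates were dosed by pin tool one day after seeding, with one drug or with a fixed anchor-drug dose plus five library-drug doses (not always all listed) in √10 steps, and nuclei were counted after 5 days.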

Compound in the assay “CAP-232 + Linsitinib”: C[C@H]([C@@H](C(=O)N)NC(=O)[C@@H]1CSSC[C@@H](C(=O)N[C@H](C(=O)N[C@@H](C(=O)N[C@H](C(=O)N1)CCCCN)CC2=CNC3=CC=CC=C32)CC4=CC=C(C=C4)O)NC(=O)[C@@H](CC5=CC=CC=C5)N)O [CAP-232] + C[C@]1(O)C[C@@H](c2nc(-c3ccc4ccc(-c5ccccc5)nc4c3)c3c(N)nccn32)C1 [Linsitinib] (partner 1 µM)
In a few lines: as §1

Compound in the assay “CAP-232 + AZD7762”: C[C@H]([C@@H](C(=O)N)NC(=O)[C@@H]1CSSC[C@@H](C(=O)N[C@H](C(=O)N[C@@H](C(=O)N[C@H](C(=O)N1)CCCCN)CC2=CNC3=CC=CC=C32)CC4=CC=C(C=C4)O)NC(=O)[C@@H](CC5=CC=CC=C5)N)O [CAP-232] + NC(=O)Nc1cc(-c2cccc(F)c2)sc1C(=O)N[C@H]1CCCNC1 [AZD7762] (partner 0.2 µM)
In a few lines: as §1

Compound in the assay “CAP-232 + Luminespib”: C[C@H]([C@@H](C(=O)N)NC(=O)[C@@H]1CSSC[C@@H](C(=O)N[C@H](C(=O)N[C@@H](C(=O)N[C@H](C(=O)N1)CCCCN)CC2=CNC3=CC=CC=C32)CC4=CC=C(C=C4)O)NC(=O)[C@@H](CC5=CC=CC=C5)N)O [CAP-232] + CCNC(=O)c1noc(-c2cc(C(C)C)c(O)cc2O)c1-c1ccc(CN2CCOCC2)cc1 [Luminespib] (partner 0.01 µM)
The procedure, abridged:
as §1

Compound in the assay “CAP-232 + Palbociclib”: C[C@H]([C@@H](C(=O)N)NC(=O)[C@@H]1CSSC[C@@H](C(=O)N[C@H](C(=O)N[C@@H](C(=O)N[C@H](C(=O)N1)CCCCN)CC2=CNC3=CC=CC=C32)CC4=CC=C(C=C4)O)NC(=O)[C@@H](CC5=CC=CC=C5)N)O [CAP-232] + CC(=O)c1c(C)c2cnc(Nc3ccc(N4CCNCC4)cn3)nc2n(C2CCCC2)c1=O [Palbociclib] (partner 0.5 µM)
In a few lines:
as §1

On to NCI-H1975, for which the relative viability was 0.825 with CAP-232 + Olaparib (first compound 0.4 µM); 0.894 in the assay with CAP-232 + Olaparib (first compound 1.265 µM); 1.04 with CAP-232 + Olaparib (first compound 4 µM); 0.363 in the assay with CAP-232 + Olaparib (first compound 12.65 µM); 1.03 with CAP-232 + Linsitinib (first compound 0.4 µM); 1.02 with CAP-232 + Linsitinib (first compound 1.265 µM). The relative viability came out at 1.07 with CAP-232 + Linsitinib (first compound 4 µM); 0.65 in the assay with CAP-232 + Linsitinib (first compound 12.65 µM); 0.892 with CAP-232 + AZD7762 (first compound 0.4 µM); 0.711 with CAP-232 + AZD7762 (first compound 1.265 µM); 0.712 with CAP-232 + AZD7762 (first compound 4 µM); 0.442 with CAP-232 + AZD7762 (first compound 12.65 µM). The relative viability is 0.256 with CAP-232 + Luminespib (first compound 0.4 µM); 0.195 with CAP-232 + Luminespib (first compound 1.265 µM); 0.195 with CAP-232 + Luminespib (first compound 4 µM); 0.185 in the assay with CAP-232 + Luminespib (first compound 12.65 µM); 0.664 in the assay with CAP-232 + Palbociclib (first compound 0.4 µM); 0.486 with CAP-232 + Palbociclib (first compound 1.265 µM). Besides, the relative viability in the assay with CAP-232 + Palbociclib (first compound 4 µM) was 0.74; with CAP-232 + Palbociclib (first compound 12.65 µM) it was 0.324.

Turning to NCI-H1993, the relative viability amounted to 1.32 in the assay with CAP-232 + Olaparib (first compound 0.4 µM); 1.14 with CAP-232 + Olaparib (first compound 1.265 µM); 0.933 with CAP-232 + Olaparib (first compound 4 µM); 1.08 with CAP-232 + Olaparib (first compound 12.65 µM); 0.778 in the assay with CAP-232 + Linsitinib (first compound 0.4 µM); 0.758 in the assay with CAP-232 + Linsitinib (first compound 1.265 µM). Besides, the relative viability in the assay with CAP-232 + Linsitinib (first compound 4 µM) came to 0.788; with CAP-232 + Linsitinib (first compound 12.65 µM), 0.7; in the assay with CAP-232 + AZD7762 (first compound 0.4 µM), 0.756; in the assay with CAP-232 + AZD7762 (first compound 1.265 µM), 0.702; with CAP-232 + AZD7762 (first compound 4 µM), 0.694; in the assay with CAP-232 + AZD7762 (first compound 12.65 µM), 0.633. In addition, the relative viability with CAP-232 + Luminespib (first compound 0.4 µM) was 0.735; with CAP-232 + Luminespib (first compound 1.265 µM) it was 0.882; in the assay with CAP-232 + Luminespib (first compound 4 µM) it was 0.99; with CAP-232 + Luminespib (first compound 12.65 µM), 0.831; with CAP-232 + Palbociclib (first compound 0.4 µM), 0.701; in the assay with CAP-232 + Palbociclib (first compound 1.265 µM), 0.586. Also, the relative viability with CAP-232 + Palbociclib (first compound 4 µM) was 0.62; in the assay with CAP-232 + Palbociclib (first compound 12.65 µM) it was 0.602.

In the case of NCI-H2085, the relative viability in the assay with CAP-232 + Olaparib (first compound 0.4 µM) was 0.825; with CAP-232 + Olaparib (first compound 1.265 µM), 0.764; in the assay with CAP-232 + Olaparib (first compound 4 µM), 0.743; in the assay with CAP-232 + Olaparib (first compound 12.65 µM), 0.771; in the assay with CAP-232 + Linsitinib (first compound 0.4 µM) it was 0.816; in the assay with CAP-232 + Linsitinib (first compound 1.265 µM), 1.04. Moreover, the relative viability with CAP-232 + Linsitinib (first compound 4 µM) is 0.955; in the assay with CAP-232 + Linsitinib (first compound 12.65 µM), 0.843; with CAP-232 + AZD7762 (first compound 0.4 µM) it was 1.04; with CAP-232 + AZD7762 (first compound 1.265 µM) it was 1.03; with CAP-232 + AZD7762 (first compound 4 µM) it was 0.988; with CAP-232 + AZD7762 (first compound 12.65 µM), 0.964. Besides, the relative viability was 0.472 in the assay with CAP-232 + Luminespib (first compound 0.4 µM); 0.459 with CAP-232 + Luminespib (first compound 1.265 µM); 0.425 with CAP-232 + Luminespib (first compound 4 µM); 0.462 in the assay with CAP-232 + Luminespib (first compound 12.65 µM); 0.465 with CAP-232 + Palbociclib (first compound 0.4 µM); 0.495 with CAP-232 + Palbociclib (first compound 1.265 µM). In addition, the relative viability with CAP-232 + Palbociclib (first compound 4 µM) is 0.447; with CAP-232 + Palbociclib (first compound 12.65 µM), 0.5.

On to NCI-H2087, for which the relative viability is 0.646 in the assay with CAP-232 + Olaparib (first compound 0.4 µM); 0.669 with CAP-232 + Olaparib (first compound 1.265 µM); 0.697 with CAP-232 + Olaparib (first compound 4 µM); 0.312 in the assay with CAP-232 + Olaparib (first compound 12.65 µM); 0.894 in the assay with CAP-232 + Linsitinib (first compound 0.4 µM); 0.955 with CAP-232 + Linsitinib (first compound 1.265 µM). Moreover, the relative viability with CAP-232 + Linsitinib (first compound 4 µM) stood at 0.924; with CAP-232 + Linsitinib (first compound 12.65 µM), 0.541; in the assay with CAP-232 + AZD7762 (first compound 0.4 µM), 1.32; with CAP-232 + AZD7762 (first compound 1.265 µM), 1.4; in the assay with CAP-232 + AZD7762 (first compound 4 µM), 1.59; with CAP-232 + AZD7762 (first compound 12.65 µM) it was 0.684. Besides, the relative viability with CAP-232 + Luminespib (first compound 0.4 µM) was determined as 0.187; with CAP-232 + Luminespib (first compound 1.265 µM) it was 0.157; in the assay with CAP-232 + Luminespib (first compound 4 µM) it was 0.146; with CAP-232 + Luminespib (first compound 12.65 µM), 0.143; in the assay with CAP-232 + Palbociclib (first compound 0.4 µM), 0.214; with CAP-232 + Palbociclib (first compound 1.265 µM), 0.225. The figures for the relative viability in the assay with CAP-232 + Palbociclib (first compound 4 µM) and with CAP-232 + Palbociclib (first compound 12.65 µM) were 0.218 and 0.226, respectively.
